In patent publication US7608640B2, “Glycine betaine and its use” (priority 2001, dated 2009):
Where “and” joins values, the source holds several entries; their conditions need not be identical. Equal values may be shown once.

What was measured:
[1] = tested on: coagulation (Fibrinogen, APTT, Prothrombin Time, Anti-Xa activity); experiment: Plasma fibrinogen, APTT, prothrombin time and anti-Xa in heparinized rat; type: in vivo; settings: Example 37
Source text: This example investigated the effect of delayed betaine administration in an antidote type administration inhibited the bleeding time and volume of blood loss induced by heparin treatment in a rat. Twenty male Wistar rats were purchased from Charles River, France and were acclimated for one week prior to the tests. Each rat was weighed prior to testing (weights ranged from 240-340 g with a mean weight of 275 g) and divided into 2 groups of 10 animals each. One group received an injection of heparin (5 mg/kg) at T0. The second group received a heparin injection (5 mg/kg) at T0, and a betaine injection (10 mg/kg) at T0+30 minutes. Both groups were subjected to a bleeding test at T0+60 minutes. The testing was performed using the previously described methodology with slight modifications. The tails were sectioned at 5-8 mm from the extremity. After transection, the proximal end of the tail was placed in a tube and blood was permitted to drip freely into a reservoir of 3.8% citrate solution (1 ml) until bleeding stopped. Blood loss volumes were then determined using a 1000 μl pipette. At the end of the experiments, before euthanasia, blood was sampled by intracardiac puncture on Na-citrate (3.8%, 1:9) and centrifuged at 4000 rpm/min for 20 minutes in order to obtain Poor Platelet Plasma (PPP). Fibrinogen, APTT, Prothrombin Time (Quick) and Anti-Xa activity were determined using an Automatic Coagulation Laboratory ACL 200 (Instrumentation Laboratory, France). […] Betaine efficiency to reduce bleeding times was confirmed. The effect on the haemorrhage was also confirmed since there was a very significant reduction of the blood loss volumes when compared to the heparin group. The delayed administration of betaine after heparin treatment, designed to mimic an antidote mode of administration, almost restored the bleeding times and the volumes of blood loss in the 10 betaine-treated animals to normal.

[2] = Azure A method, in vitro binding of betaine to heparin
Experimental: This experiment utilized stock solutions of azure A, heparin, betaine, and a betaine-heparin combination in order to determine in vitro binding of betaine to Heparin. The stock solution of azure A was prepared at 4×10^−5 mol L^−1 by solubilizing 58.35 mg azure A in 50 ml of sterile injectable water. Next, 10 ml of this solution was diluted in 90 ml of sterile injectable water. The resulting solution was diluted again by taking 10 ml of this solution and diluting it in 90 ml of sterile injectable water. Finally, the resulting solution is filtered on Watman paper and aliquots of 4 ml are realized. The stock solution of Heparin was prepared by diluting the manufacturer-supplied stock solution (5000 UI/ml having ±150 UI/mg), (LEO Pharma, Ballerup, Denmark). One ml of this supplied solution was diluted in 499 ml of sterile injectable water in order to obtain a 10 UI/ml in final concentration. The betaine stock solution was prepared by diluting betaine in sterile injectable water in order to obtain a final concentration of 10 mg/ml. The Heparin-betaine combination stock solution was prepared by mixing 12 ml of the betaine stock solution prepared as noted above with 14.4 ml of the manufacturer-supplied Heparin stock solution (corresponding to 120 mg of betaine and 480 mg Heparin). This mixture was agitated for 2 minutes while mixing and then incubated for 10 minutes at 20° C. The final combination solution is then prepared by taking 1 ml of the solution after incubation and diluting it in 499 ml of sterile injectable water.
Each stock solution was then tested at six dilutions for its effect on heparin binding to azure A dye. The first dilution consisted of 0 μl solution, 400 μl water and 4 ml azure A solution. The second dilution consisted of 80 μl solution, 320 μl water and 4 ml azure A solution. The third dilution consisted of 160 μl solution, 240 μl water and 4 ml azure A solution. The fourth dilution consisted of 240 μl solution, 160 μl water and 4 ml azure A solution. The fifth dilution consisted of 320 μl solution, 80 μl water and 4 ml azure A solution. The sixth dilution consisted of 400 μl solution, 0 μl water and 4 ml azure A solution. Each dilution was then subjected to the azure A method which is a rapid and simple spectrophotometric method for determining heparin concentration following the formation of a soluble complex between heparin and azure A dye. Chemically, azure A is formed by 3 benzene nuclei and a terminal N^+. This soluble complex changes the typically blue color of the azure dye to purple. The principle of the test is based on the spectrophotometric absorption of the heparin/azure A dye complex at 632 nm. Heparin binding to azure A results in lowered absorbance and the solution gradually turns deeper purple as heparin concentration increases. In the presence of a substance which binds to heparin (e.g., protamine), azure A retains its blue color and absorbance remains constant. The results of this test are provided in the following table which illustrates that no significant change in the absorbance of azure A occurs when betaine is combined with heparin. However, Heparin alone has a significant effect on azure A absorption.

[3] = tested on: coagulation factors; experiment: Biological balance (Quick time, ACT, fibrinogen, α2AP, AT III); type: in vivo, rat
[4] = tested on: platelet aggregation; experiment: Whole blood platelet aggregation ex vivo (aggregometer); type: in vivo, rat; settings: for Amplitude (platelet aggregation induced ex vivo) / Velocity (platelet aggregation induced ex vivo): 5 mg/kg; for Amplitude (platelet aggregation) / Velocity (platelet aggregation): rat, after laser firings, glycine betaine 5 mg/kg, acetylsalicylic acid 100 mg/kg, heparin 2 mg/kg
Experimental: The aggregation is made in accordance to the methods of Cardinal & Flower. Pharmacol. Method. 1980, and to American Journal of Clinical Pathology, 1989; 92: 676-679, Sureney. J D. Whole Blood aggregometry. After a keeping period of 8 days, the rats are subjected to a fasting for 12 hours. […] The rats are then anaesthetised with sodium Thiopental administered at a dose of 200 mg/Kg and the blood samples are taken by intracardiac puncture on a trisodium citrate solution (1 volume of solution at 3.8% citrate for 9 volumes of blood).

[5] = betaine 10 mg/kg 30 minutes after heparin 5 mg/kg
[6] = Heparin UI/ml (reference) 2, second dilution, 80 μl stock solution
[7] = Heparin UI/ml (reference) 4, third dilution, 160 μl stock solution
[8] = Heparin UI/ml (reference) 6, fourth dilution, 240 μl stock solution
[9] = Heparin UI/ml (reference) 8, fifth dilution, 320 μl stock solution
[10] = Heparin UI/ml (reference) 10, sixth dilution, 400 μl stock solution
[11] = 5 mg/kg/day, repeated administration on 5 days of treatment
[12] = rat, glycine betaine 5 mg/kg, acetylsalicylic acid 100 mg/kg, heparin 2 mg/kg
[13] = Group I: injected 1 hour before
[14] = Group II: injected 2 hours before
[15] = Group III: injected 3 hours before
[16] = Group IV: injected 4 hours before
[17] = heparin 5 mg/kg at T0, betaine 10 mg/kg at T0+30 minutes

Molecule	Absorbance of azure A at 632 nm [2, 6]	Absorbance of azure A at 632 nm [2, 7]	Absorbance of azure A at 632 nm [2, 8]	Absorbance of azure A at 632 nm [2, 9]	Absorbance of azure A at 632 nm [2, 10]	ACT (Activated cephaline time) [3, 12] [s]	AT III (Antithrombin III) [3, 12] [%]	Fibrinogen [3, 12] [g/L]	QT (Quick time) [3, 12] [s]	α2AP (Alpha,2-antiplasmin) [3, 12] [%]	Amplitude (platelet aggregation) [4] [ohms]	Velocity (platelet aggregation) [4] [ohms/min]	further results
C[N+](C)(C)CC(=O)O [Glycine betaine]	1.241	1.213	1.1937	1.1612	1.154	39.9 ± 1.05	89.5 ± 1.37	1.7 ± 0.1	16.9 ± 1.05	29.7 ± 0.68	0.66 ± 1.15	1.66 ± 1.15	APTT prolongation despite betaine administration [1, 5]: up to 6 ×; Animals with normalized Prothrombin times [1, 5]: 8 out of 10; Fibrinogen level change versus heparin [1, 5]: −10%; Fibrinogen level change versus the control [1, 5]: −23%; Reduction of Anti-Xa activity, antidote group compared to the heparin group [1, 5]: 74%; ACT [3, 11]: 39.3 ± 2.3 s; Fibrinogen [3, 11]: 2.2 ± 0.1 g/L; Quick time [3, 11]: 19.8 ± 1.2 s; Amplitude (platelet aggregation induced ex vivo) [4, 13]: 11.33 ± 3.08 Ohms; Velocity (platelet aggregation induced ex vivo) [4, 13]: 8.2 ± 0.2 ohm/minute; Amplitude (platelet aggregation induced ex vivo) [4, 14]: 13.2 ± 3.5 Ohms; Velocity (platelet aggregation induced ex vivo) [4, 14]: 9.3 ± 1.8 ohm/minute; Amplitude (platelet aggregation induced ex vivo) [4, 15]: 12.7 ± 4.1 Ohms; Velocity (platelet aggregation induced ex vivo) [4, 15]: 8.7 ± 1.3 ohm/minute; Amplitude (platelet aggregation induced ex vivo) [4, 16]: 13 ± 2.8 Ohms; Velocity (platelet aggregation induced ex vivo) [4, 16]: 8.7 ± 1.15 ohm/minute
Heparin	1.0608	0.8399	0.5797	0.358	0.205	39.46 ± 1.36	77.66 ± 1.52	2.13 ± 0.25	29.50 ± 0.52	29.4 ± 1.01	4.33 ± 0.57	2.66 ± 0.50	APTT, Mean [1, 17]: >180 s; APTT, individual rats [1, 17]: >180 s; Anti-Xa, Mean [1, 17]: 1.37 IU/ml; Anti-Xa, individual rats [1, 17]: 1.35 IU/ml (2×) and 1.38 IU/ml (2×) and 1.37 IU/ml (2×) and 1.34 IU/ml and 1.41 IU/ml and 1.39 IU/ml (2×); Fibrinogen, Mean [1, 17]: 1.82 g/L; Fibrinogen, individual rats [1, 17]: 2.15 g/L and 1.77 g/L and 2.1 g/L and 1.53 g/L and 1.62 g/L and 2.0 g/L and 1.55 g/L and 1.67 g/L and 1.57 g/L and 2.2 g/L; Quick (Prothrombin Time), Mean [1, 17]: 61.07 s; Quick (Prothrombin Time), individual rats [1, 17]: 52.3 s and 57.4 s and 55.3 s and 66.2 s and 66.0 s and 59.6 s and 64.6 s and 67.2 s and 62.2 s and 59.9 s
